Data taken from publication PMC9029893 (International Journal of Molecular Sciences, 2022).

What was measured:
Assay type in all cases: biochemical
[1] = system: clot formation and fibrinolysis in human citrate plasma; test: Clot formation and fibrinolysis test (CL-test)
Protocol: The effects of the […] on overall hemostasis potential by means of clot formation and fibrinolysis test (CL-test) were further tested based on the continuous measurement of the changes in optical transmittance over time, as described by Kostka et al. and Sikora et al.. These experiments were conducted using 470 µL of three-fold diluted human citrate plasma, 10 µL of the tested compounds, and 10 µL t-PA (final concentration in a sample 220 ng/mL). The clot formation was triggered by thrombin (10 µL, final concentration 0.5 IU/mL). The clot formation and lysis curves were determined at a wavelength of 405 nm with a spectrophotometer (Cecil CE 2021; London, UK) with circulating thermostated water (37 °C) and a Model 300 Electronic Stirrer (Rank Brothers Ltd., Cambridge, UK). The experiments were conducted in multiplicate (n = 5–7), and the results are presented as mean ± SD.
The received graphs were analyzed using dedicated software to determine the kinetic parameters of clot formation, stabilization, and fibrinolysis. The following parameters of clot formation were determined: Tt—thrombin time (s), Fmax—maximum clotting (%T), Tf—plasma clotting time (s), Fvo—initial plasma clotting velocity (%T/min), Sr—area under the clot formation curve (%Txmin). The parameters of the clot stabilization phase comprised Tc—clot stabilization time (s), Sc—area under the curve of stable clot formation (%Txmin). The parameters of fibrinolysis comprised Lmax—maximum lysis (%T), Tl—fibrinolysis time (s), Lvo—initial clot fibrinolysis velocity (%T/min), Sf—area under the fibrinolysis curve (%Txmin). Additionally, the overall potential of clot formation and fibrinolysis (CLAUC, (%Txmin)) and total time of the process of clot formation and fibrinolysis (T, (s)) were also estimated.

factor X = target: T1, factor X (Homo sapiens, UniProt P00742); test: Factor X activity
T1 construct: 50 µL of four-fold diluted PPP, 50 μL of deficient plasma factor X, 10 μL of the examined compound; from tissue; host or cells: platelet-poor plasma (PPP), mixed with factor X-depleted plasma (Bio-Ksel)
Protocol: The activity of FX was measured optically using deficient plasma factor X [75]. The content of each sample was as follows: 50 µL of four-fold diluted PPP, 50 μL of deficient plasma factor X, 10 μL of the examined compound, and 100 µL PT reagent. The control samples contained 10 μL of distilled water and methanol (1:1). The measurement of PT time was recorded using a CoagChrom-3003 coagulometer (Bio-Ksel, Grudziadz, Poland). The activity of factor X was counted using a calibration curve (R^2 = 0.999) performed on a calibrator diluted in the range 1:5–1:80 [76]. The variation in plasma coagulation time is proportional to the concentration and activity of factor X in the patient plasma treated with the tested compounds. The coefficient of variability for the method was calculated as CV = 1.80%. The reference values for factor X activity ranged from 77–131%.

[2] = system: human plasma (platelet poor plasma); test: Basic coagulation tests: PT, INR, APTT, TT; details: for TT: thrombin 3.0 UNIH/mL
Protocol: The blood was collected into vacuum tubes stuffed with 3.2% buffered sodium citrate. Platelet poor plasma (PPP) was obtained by centrifugation at 3000× g for 10 min at room temperature using a Micro 22R centrifuge (Hettich Zentrifugen, Tuttlingen, Germany). The obtained PPP was stored in small aliquots for up to one month at –30° C. Before each experiment, PPP was restored at 37 °C for 15 min. Once thawed, the PPP was not frozen again nor used for retesting.
The effects of biguanidines (1–5) on the basic coagulation parameters (PT, INR, APTT, and TT) were carried out using a CoagChrom-3003 coagulometer (Bio-Ksel, Grudziądz, Poland), according to the routine laboratory diagnostic procedure. The studies were performed in multiplicate (n = 4–7). The control samples containing distilled water and methanol (1:1) were also included.
The results are presented as mean ± standard deviation (SD). The methods were validated, and coefficients of variability for all experiments were calculated (PT: CV = 10.25%, APTT: CV = 8.55%, TT: CV = 4.87%). The reference values for each test are as follows: PT: 9.7–14.6 s; APTT: 26.7–40.0 s; TT: 14.0–18.0 s for 3.0 UNIH/mL of thrombin.

T1 sequence (P00742 41-488): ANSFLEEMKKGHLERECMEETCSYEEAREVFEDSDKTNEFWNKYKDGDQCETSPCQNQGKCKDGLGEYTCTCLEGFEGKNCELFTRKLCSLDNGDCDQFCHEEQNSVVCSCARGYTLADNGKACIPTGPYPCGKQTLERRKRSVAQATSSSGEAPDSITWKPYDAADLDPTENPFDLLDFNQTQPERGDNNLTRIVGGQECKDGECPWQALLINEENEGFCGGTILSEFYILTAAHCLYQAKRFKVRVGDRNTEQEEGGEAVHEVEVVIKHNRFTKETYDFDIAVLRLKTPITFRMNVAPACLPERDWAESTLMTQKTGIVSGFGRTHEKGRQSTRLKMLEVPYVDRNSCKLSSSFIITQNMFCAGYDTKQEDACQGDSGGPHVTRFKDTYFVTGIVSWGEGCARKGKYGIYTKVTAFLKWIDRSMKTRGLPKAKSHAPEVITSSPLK

In the case of `CN(C)C(=N)N=C(N)NS(=O)(=O)C1CCCCC1` [Compound 3], the “Fmax—maximum clotting” value ([1]; 0.06 mM) is reported as 65.40 ± 9.39 %T, the “Fvo—initial plasma clotting velocity” value ([1]; 0.06 mM) is reported as 208.17 ± 44.80 %T/min and the “Lmax—maximum lysis” value ([1]; 0.06 mM) is reported as 71.38 ± 8.36 %T. For the same molecule, the “Lvo—initial clot fibrinolysis velocity” value ([1]; 0.06 mM) was 20.38 ± 5.24 %T/min, the “Sc—area under the curve of a stable clot formation” value (shortened to “Sc—area under the curve”) ([1]; 0.06 mM) was 314.15 ± 49.14 %T x min and the “Sf—area under the clot formation curve” value ([1]; 0.06 mM) was 48.52 ± 10.81 %T x min. For the same molecule, the “Sl (area under the fibrinolysis curve)” value ([1]; 0.06 mM) was 156.16 ± 30.07 %T x min, the “S—overall potential of clot formation and fibrinolysis (CLAUC)” value (shortened to “S—overall potential”) ([1]; 0.06 mM) was 521.91 ± 66.81 %T x min and the “Tc—clot stabilization time” value ([1]; 0.06 mM) was 279.50 ± 46.51 s. The “Tf—plasma clotting time” value ([1]; 0.06 mM) was 57.45 ± 8.71 s, the “Tl—fibrinolysis time” value ([1]; 0.06 mM) was 235.33 ± 48.33 s and the “Tt—thrombin time” value ([1]; 0.06 mM) was 16.68 ± 3.26 s. For the same molecule, the “T—total time of the process of clot formation and fibrinolysis” value (shortened to “T—total time”) ([1]; 0.06 mM) was 588.97 ± 87.54 s, the “Fmax—maximum clotting” value ([1]; 0.3 mM) was 68.78 ± 4.04 %T and the “Fvo—initial plasma clotting velocity” value ([1]; 0.3 mM) was 214.17 ± 32.05 %T/min. The “Lmax—maximum lysis” value ([1]; 0.3 mM) was 70.15 ± 3.87 %T, the “Lvo—initial clot fibrinolysis velocity” value ([1]; 0.3 mM) was 22.88 ± 8.98 %T/min and the “Sc—area under the curve” value ([1]; 0.3 mM) was 335.21 ± 50.51 %T x min. For the same molecule, the “Sf—area under the clot formation curve” value ([1]; 0.3 mM) was 44.41 ± 6.00 %T x min, the “Sl (area under the fibrinolysis curve)” value ([1]; 0.3 mM) was 142.20 ± 37.46 %T x min and the “S—overall potential” value ([1]; 0.3 mM) was 521.82 ± 88.83 %T x min. The “Tc—clot stabilization time” value ([1]; 0.3 mM) was 299.50 ± 38.60 s, the “Tf—plasma clotting time” value ([1]; 0.3 mM) was 55.13 ± 7.55 s and the “Tl—fibrinolysis time” value ([1]; 0.3 mM) was 229.17 ± 48.85 s. For the same molecule, the “Tt—thrombin time” value ([1]; 0.3 mM) was 16.23 ± 4.22 s, the “T—total time” value ([1]; 0.3 mM) was 600.03 ± 91.80 s and the “Fmax—maximum clotting” value ([1]; 0.6 mM) was 66.60 ± 4.00 %T. The “Fvo—initial plasma clotting velocity” value ([1]; 0.6 mM) was 211.50 ± 22.76 %T/min, the “Lmax—maximum lysis” value ([1]; 0.6 mM) was 67.55 ± 4.50 %T and the “Lvo—initial clot fibrinolysis velocity” value ([1]; 0.6 mM) was 23.53 ± 6.67 %T/min. The “Sc—area under the curve” value ([1]; 0.6 mM) was 323.11 ± 42.53 %T x min, the “Sf—area under the clot formation curve” value ([1]; 0.6 mM) was 42.40 ± 3.94 %T x min and the “Sl (area under the fibrinolysis curve)” value ([1]; 0.6 mM) was 137.48 ± 23.47 %T x min. The “S—overall potential” value ([1]; 0.6 mM) was 502.99 ± 64.69 %T x min, the “Tc—clot stabilization time” value ([1]; 0.6 mM) was 299.50 ± 40.90 s and the “Tf—plasma clotting time” value ([1]; 0.6 mM) was 54.73 ± 5.88 s. The “Tl—fibrinolysis time” value ([1]; 0.6 mM) was 234.83 ± 42.86 s, the “Tt—thrombin time” value ([1]; 0.6 mM) was 17.17 ± 3.17 s and the “T—total time” value ([1]; 0.6 mM) was 606.23 ± 87.70 s. The “Fmax—maximum clotting” value ([1]; 1.5 mM) was 63.60 ± 5.36 %T, the “Fvo—initial plasma clotting velocity” value ([1]; 1.5 mM) was 199.50 ± 18.07 %T/min and the “Lmax—maximum lysis” value ([1]; 1.5 mM) was 63.92 ± 5.38 %T. The “Lvo—initial clot fibrinolysis velocity” value ([1]; 1.5 mM) was 23.50 ± 13.77 %T/min, the “Sc—area under the curve” value ([1]; 1.5 mM) was 368.60 ± 84.14 %T x min and the “Sf—area under the clot formation curve” value ([1]; 1.5 mM) was 47.68 ± 7.07 %T x min. The “Sl (area under the fibrinolysis curve)” value ([1]; 1.5 mM) was 143.17 ± 38.79 %T x min, the “S—overall potential” value ([1]; 1.5 mM) was 559.45 ± 127.25 %T x min and the “Tc—clot stabilization time” value ([1]; 1.5 mM) was 355.50 ± 66.77 s. The “Tf—plasma clotting time” value ([1]; 1.5 mM) was 62.35 ± 6.00 s, the “Tl—fibrinolysis time” value ([1]; 1.5 mM) was 253.17 ± 62.51 s and the “Tt—thrombin time” value ([1]; 1.5 mM) was 18.15 ± 4.30 s. The “T—total time” value ([1]; 1.5 mM) was 689.17 ± 134.48 s, the “Factor X activity” value (factor X; 0.3 mM) was 105.60 ± 2.30% and the “Factor X activity” value (factor X; 0.6 mM) was 103.40 ± 7.23%. For the same molecule, the “Factor X activity” value (factor X; 1.5 mM) was 104.20 ± 8.14%, the APTT ([2]; 0.006 mM) was 32.97 ± 5.06 s and the INR ([2]; 0.006 mM) was 1.00 ± 0.11. For the same molecule, the PT ([2]; 0.006 mM) was 12.52 ± 1.42 s, the TT ([2]; 0.006 mM) was 13.18 ± 1.97 s and the APTT ([2]; 0.06 mM) was 34.50 ± 4.52 s. For the same molecule, the INR ([2]; 0.06 mM) was 1.04 ± 0.15, the PT ([2]; 0.06 mM) was 13.02 ± 1.90 s and the TT ([2]; 0.06 mM) was 13.14 ± 2.01 s. For the same molecule, the APTT ([2]; 0.3 mM) was 33.00 ± 5.70 s, the INR ([2]; 0.3 mM) was 1.09 ± 0.11 and the PT ([2]; 0.3 mM) was 13.60 ± 1.39 s. It also gave a TT ([2]; 0.3 mM) of 13.46 ± 1.97 s, an APTT ([2]; 0.6 mM) of 33.17 ± 5.34 s and an INR ([2]; 0.6 mM) of 1.09 ± 0.18. The PT ([2]; 0.6 mM) was 13.66 ± 2.27 s, the TT ([2]; 0.6 mM) was 13.50 ± 1.74 s and the APTT ([2]; 1.5 mM) was 32.49 ± 7.50 s. For the same molecule, the INR ([2]; 1.5 mM) was 1.06 ± 0.18, the PT ([2]; 1.5 mM) was 13.30 ± 2.30 s and the TT ([2]; 1.5 mM) was 14.06 ± 1.60 s.
